According to ChEMBL document CHEMBL6109156, “Discovery of Dual PD-L1/HDAC3 Inhibitors for Tumor Immunotherapy” (J Med Chem, 2025):
The source made the active and inactive calls. The calls are words filed in the database; no cut-off is given here.

Columns and labels:
B16-F10 [1] = assay: Induction of apoptosis in mouse B16-F10 cells assessed as early apoptotic cells at 4 uM incubated for 48 hrs by Annexin V-FITC/PI staining based flow cytometry analysis (reference value: 0.45 %); type: functional
A-375 [2] = assay: Antiproliferative activity against human A-375 cells assessed as cell growth inhibition incubated for 48 hrs by MTT assay; type: functional, cell-based; conditions: A-375, 48 h
A-375 [3] = assay: Antiproliferative activity against human A-375 cells assessed as cell viability incubated for 48 hrs by MTT assay; type: functional, cell-based
[4] = Toxicity in C57BL/6J mouse implanted with mouse B16-F10 cells assessed as lung damage at 20 to 40 mg/kg, ip administered once daily for 9 days by H and E staining based analysis; type: organism-based; conditions: in vivo, 216 h, dose 20-40 mg/kg, time 9 day
B16-F10 [5] = assay: Induction of cell cycle arrest in mouse B16-F10 cells assessed as accumulation of cells at G0/G1 phase at 8 uM incubated for 48 hrs by PI staining based flow cytometry analysis (reference value: 70.09%); type: functional
B16-F10 [6] = assay: Induction of cell cycle arrest in mouse B16-F10 cells assessed as accumulation of cells at S phase at 4 uM incubated for 48 hrs by PI staining based flow cytometry analysis (reference value: 24.04%); type: functional
A-375 [7] = assay: Antiproliferative activity against human A-375 cells co-cultured with human Jurkat T cells incubated for 48 hrs by MTT assay; type: functional, cell-based; conditions: dose 0.0625-1 µM
[8] = Toxicity in C57BL/6J mouse implanted with mouse B16-F10 cells assessed as liver damage at 20 to 40 mg/kg, ip administered once daily for 9 days by H and E staining based analysis; type: organism-based; conditions: in vivo, 216 h, dose 20-40 mg/kg, time 9 day
B16-F10 [9] = assay: Induction of apoptosis in mouse B16-F10 cells assessed as viable cells at 2 uM incubated for 48 hrs by Annexin V-FITC/PI staining based flow cytometry analysis (reference value: 92.3%); type: functional; conditions: read-out: Activity
B16-F10 [10] = assay: Induction of apoptosis in mouse B16-F10 cells assessed as viable cells at 8 uM incubated for 48 hrs by Annexin V-FITC/PI staining based flow cytometry analysis (reference value: 92.3%); type: functional; conditions: read-out: Activity
B16-F10 [11] = assay: Induction of cell cycle arrest in mouse B16-F10 cells assessed as accumulation of cells at G0/G1 phase at 1 uM incubated for 48 hrs by PI staining based flow cytometry analysis (reference value: 70.09%); type: functional
B16-F10 [12] = assay: Induction of cell cycle arrest in mouse B16-F10 cells assessed as accumulation of cells at S phase at 8 uM incubated for 48 hrs by PI staining based flow cytometry analysis (reference value: 24.04%); type: functional
B16-F10 [13] = assay: Induction of apoptosis in mouse B16-F10 cells assessed as late apoptotic cells at 2 uM incubated for 48 hrs by Annexin V-FITC/PI staining based flow cytometry analysis (reference value: 5.02 %); type: functional
Histone deacetylase 3 [14] = biological target: T1, Histone deacetylase 3 (Homo sapiens, UniProt O15379); assay: Inhibition of human recombinant HDAC3 using Ac-Leu-Gly-Lys (Ac)-AMC as substrate at 1 uM preincubated for 10 mins followed by substrate addition and measured after 45 mins by TECAN microtiter plate reader analysis relative to control; conditions: time 55.0 min
B16-F10 [15] = assay: Induction of cell cycle arrest in mouse B16-F10 cells assessed as accumulation of cells at S phase at 2 uM incubated for 48 hrs by PI staining based flow cytometry analysis (reference value: 24.04%); type: functional
B16-F10 [16] = assay: Induction of apoptosis in mouse B16-F10 cells assessed as necrotic cells at 8 uM incubated for 48 hrs by Annexin V-FITC/PI staining based flow cytometry analysis (reference value: 2.24%); type: functional
B16-F10 [17] = assay: Induction of apoptosis in mouse B16-F10 cells assessed as necrotic cells at 2 uM incubated for 48 hrs by Annexin V-FITC/PI staining based flow cytometry analysis (reference value: 2.24%); type: functional
B16-F10 [18] = assay: Induction of apoptosis in mouse B16-F10 cells assessed as early apoptotic cells at 8 uM incubated for 48 hrs by Annexin V-FITC/PI staining based flow cytometry analysis (reference value: 0.45 %); type: functional
B16-F10 [19] = assay: Immunomodulatory activity in mouse B16-F10 cells implanted in C57BL/6J mouse assessed as percentage of CD3 positive CD8 positive cells in tumor at 40 mg/kg, ip administered once daily for 9 days by flow cytometric analysis (reference value: 0.44 %); type: functional; conditions: time 9 day
B16-F10 [20] = assay: Induction of cell cycle arrest in mouse B16-F10 cells assessed as accumulation of cells at G0/G1 phase at 4 uM incubated for 48 hrs by PI staining based flow cytometry analysis (reference value: 70.09%); type: functional
B16-F10 [21] = assay: Induction of cell cycle arrest in mouse B16-F10 cells assessed as accumulation of cells at G0/G1 phase at 2 uM incubated for 48 hrs by PI staining based flow cytometry analysis (reference value: 70.09%); type: functional
[22] = Toxicity in C57BL/6J mouse implanted with mouse B16-F10 cells assessed as spleen damage at 20 to 40 mg/kg, ip administered once daily for 9 days by H and E staining based analysis; type: organism-based; conditions: in vivo, 216 h, dose 20-40 mg/kg, time 9 day
B16-F10 [23] = assay: Induction of cell cycle arrest in mouse B16-F10 cells assessed as accumulation of cells at G2/M phase at 8 uM incubated for 48 hrs by PI staining based flow cytometry analysis (reference value: 5.87%); type: functional
B16-F10 [24] = assay: Induction of apoptosis in mouse B16-F10 cells assessed as viable cells at 4 uM incubated for 48 hrs by Annexin V-FITC/PI staining based flow cytometry analysis (reference value: 92.3%); type: functional; conditions: read-out: Activity
B16-F10 [25] = assay: Induction of apoptosis in mouse B16-F10 cells assessed as necrotic cells at 1 uM incubated for 48 hrs by Annexin V-FITC/PI staining based flow cytometry analysis (reference value: 2.24%); type: functional
[26] = Toxicity in C57BL/6J mouse implanted with mouse B16-F10 cells assessed as body weight loss at 20 to 40 mg/kg, ip administered once daily for 9 days; type: organism-based; conditions: in vivo, 216 h, dose 20-40 mg/kg, time 9 day
Histone deacetylase 3 [27] = biological target: T1, Histone deacetylase 3; assay: Inhibition of human recombinant HDAC3 using Ac-Leu-Gly-Lys (Ac)-AMC as substrate preincubated for 10 mins followed by substrate addition and measured after 45 mins by TECAN microtiter plate reader analysis
B16-F10 [28] = assay: Induction of apoptosis in mouse B16-F10 cells assessed as necrotic cells at 4 uM incubated for 48 hrs by Annexin V-FITC/PI staining based flow cytometry analysis (reference value: 2.24%); type: functional
B16-F10 [29] = assay: Induction of cell cycle arrest in mouse B16-F10 cells assessed as accumulation of cells at G2/M phase at 2 uM incubated for 48 hrs by PI staining based flow cytometry analysis (reference value: 5.87%); type: functional
B16-F10 [30] = assay: Induction of apoptosis in mouse B16-F10 cells assessed as late apoptotic cells at 10 uM incubated for 48 hrs by Annexin V-FITC/PI staining based flow cytometry analysis (reference value: 5.02 %); type: functional
HepG2 = assay: Antiproliferative activity against human HepG2 cells assessed as cell growth inhibition incubated for 48 hrs by MTT assay; type: functional, cell-based; conditions: HepG2, 48 h
B16-F10 [31] = assay: Induction of cell cycle arrest in mouse B16-F10 cells assessed as accumulation of cells at G2/M phase at 1 uM incubated for 48 hrs by PI staining based flow cytometry analysis (reference value: 5.87%); type: functional

T1 sequence (O15379 whole entry): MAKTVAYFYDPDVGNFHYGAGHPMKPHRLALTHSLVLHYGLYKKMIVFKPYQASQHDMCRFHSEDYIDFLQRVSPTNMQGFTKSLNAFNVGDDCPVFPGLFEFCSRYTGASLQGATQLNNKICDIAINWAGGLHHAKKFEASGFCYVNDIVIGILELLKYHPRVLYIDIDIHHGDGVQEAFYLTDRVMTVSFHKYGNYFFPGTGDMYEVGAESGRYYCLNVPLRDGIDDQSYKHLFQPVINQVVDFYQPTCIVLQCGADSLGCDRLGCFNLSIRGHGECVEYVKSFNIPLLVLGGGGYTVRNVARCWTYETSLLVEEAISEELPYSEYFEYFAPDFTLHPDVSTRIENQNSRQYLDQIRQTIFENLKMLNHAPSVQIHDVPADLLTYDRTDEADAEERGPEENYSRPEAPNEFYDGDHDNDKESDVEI

Question: Which Activity (B16-F10 [1]) does the source give for `CCCNNC(=O)CCCNCc1ccc(-c2cccc(-c3ccccc3)c2C)nc1OC` here?
Answer: 17.1%

Question: And the IC50 (A-375 [2])?
Answer: 3.46 µM

Question: What about the Activity (A-375 [3]) of the same compound?
Answer: Active

Question: And the Activity [4]?
Answer: Non-toxic

Question: What about the Activity (B16-F10 [5]) of the same compound?
Answer: 96.8%

Question: And the Activity (B16-F10 [6])?
Answer: 4.69%

Question: What about the Activity (A-375 [7]) of the same compound?
Answer: Dose-dependent-effect

Question: And the Activity [8]?
Answer: Non-toxic

Question: And the viability at 2 µM (B16-F10 [9])?
Answer: 71.7%

Question: And the viability at 8 µM (B16-F10 [10])?
Answer: 53.6%

Question: And the Activity (B16-F10 [11])?
Answer: 73.46%

Question: And the Activity (B16-F10 [12])?
Answer: 0.5%

Question: And the Activity (B16-F10 [13])?
Answer: 14.1%

Question: And the inhibition (Histone deacetylase 3 [14])?
Answer: 83.1%

Question: What about the Activity (B16-F10 [15]) of the same compound?
Answer: 7.79%

Question: And the Activity (B16-F10 [16])?
Answer: 2.21%

Question: What about the Activity (B16-F10 [17]) of the same compound?
Answer: 4.4%

Question: What about the Activity (B16-F10 [18]) of the same compound?
Answer: 32.8%

Question: What about the Activity (B16-F10 [19]) of the same compound?
Answer: 5.08%

Question: And the Activity (B16-F10 [20])?
Answer: 91.66%

Question: And the Activity (B16-F10 [21])?
Answer: 87.25%

Question: And the Activity [22]?
Answer: Non-toxic

Question: What about the Activity (B16-F10 [23]) of the same compound?
Answer: 2.69%

Question: And the viability at 4 µM (B16-F10 [24])?
Answer: 62.3%

Question: And the Activity (B16-F10 [25])?
Answer: 2.63%

Question: What about the Activity [26] of the same compound?
Answer: Non-toxic

Question: What about the IC50 (Histone deacetylase 3 [27]) of the same compound?
Answer: 0.107 µM

Question: What about the Activity (B16-F10 [28]) of the same compound?
Answer: 4.08%

Question: And the Activity (B16-F10 [29])?
Answer: 4.96%

Question: What about the Activity (B16-F10 [30]) of the same compound?
Answer: 14.8%

Question: And the IC50 (HepG2)?
Answer: 4 µM

Question: What about the Activity (B16-F10 [31]) of the same compound?
Answer: 4.75%
